Assay results from patent US6566047B1, “Method for identifying neurite-growth promoting agents” (The Regents of the University of Colorado, priority 1998, dated 2003).
Read-outs that look alike come from different tables or passages of the source.

Key:
[1] = system: cPLA2; experiment: PLA2 activity (14C-AA release) in MAT-Lu cells; assay type: biochemical, rat; details: thrombin 200 nM
Description: MAT-Lu cells were plated at a density of 0.5×10^6 cells per flask (T-75) and grown as detailed above to approximately 25% confluency. On the day before the experiments, the serum level in the medium was dropped to 1%. Cells were fed with fresh 1% serum-medium 4 hrs prior to harvest. For harvesting, cells were rinsed with Ca^++,Mg^++-free HBSS, covered with 2 ml cold Ca^++-free modified Krebs buffer (220 mM sucrose, 50 mM NaCl, 5 mM KCl, 22 mM HEPES, 10 mM glucose. 1.2 mM NaH2PO4 and 1.2 mM MgCl2, pH 7.3), and placed on ice. Cells were scraped off, pelleted for 5 min at 200 rpm and re-suspended in a minimal volume of Krebs buffer. Aliquots were used to determine protein concentration (Biorad Assay) and phopholipase activity. To measure PLA2 activity 10-12 μg of cell protein was incubated with or without thrombin for 10 min on ice, ^14C-AA-labeled phospholipid substrate (7 μM. 40-60 mCi/mmol) was added, and the mixture was transferred to 37° for 20 min. The reaction was stopped by adding cold cliloroform/methanol (1:2 v/v). Lipid extraction followed by thin-layer chromatography (Negre-Aminou et al., J Neurochem 67:2599-2608 (1996)) isolated the reaction product (identified by co-migration with AA standard), which was then scraped off the plates and analyzed in a scintillation spectrometer (Beckman). In some experiments, especially those involving ^14C-AA-phosphatidylinositol as substrate, the diacylglycerol-containing band (identified by co-migration of standard) also was scraped and counted in order to measure phospholipase C (PLC) activity.

[2] = system: MAT-Lu cells; experiment: Boyden chamber motility assay, MAT-Lu cells; assay type: cell-based, rat; details: for Mat-Lu cells crossing filter in % of control +/− SEM: 4 hr, thrombin 200 nM, CDC 126 nM
Description: Boyden Chamber Motility Assays. Disposable transwells (Coming Costar, Cambridge, Mass.) of 6.5 mm diameter and 8 μm pore size were coated with 5 μg/ml laminin on both sides. The membranes were washed twice with Hank's balanced salt solution (HBSS) and then pre-incubated with growth medium containing 10% fetal bovine serum. Trypsinized cells (5×10^4) were plated into the upper well. After 1 hour the upper chamber was washed twice with HBSS, filled with serum-free medium and moved to a new lower chamber, also filled with serum-free medium, with or without thrombin and/or 0.75 nM insulin-like growth factor-1 (IGF-1). After incubation for 4 hrs, cells on the membrane were fixed and stained with a Diff-Quick kit (Baxter Scientific Products). Cells on the upper side were scraped off, the membranes were removed, mounted onto microscope slides and analyzed. Each filter was scanned twice at right angles under the light microscope with a 16×phase contrast objective lens. A continuous series of 20 frames for each filter was digitized using a high-resolution CCD camera (Kodak) and stored in a Power Macintosh computer. The two most peripheral pairs of frames from each scan were deleted so that 12 frames were analyzed for each filter. Cells that had crossed the membrane were counted and tabulated. The sum of the cells counted in the twelve frames was an individual data point.

[3] = system: growth cone PLA2; experiment: PLA2 assay in growth cone particles (GCPs); assay type: biochemical, rat; details: for net activity (pmol/min/mg protein), GCPs: Table 3a, 100 nM
Description: Growth Cone Particle (GCP) Isolation. GCPs were prepared as described by Pfenninger et al. (1983) and modified by Lohse et al., Dev. Brain Res., 96:38-96 (1996). Briefly, 18-day fetal brains were homogenized in approximately 8 volumes of 0.32 M sucrose containing 1 mM MgCl2, 2 mM TES buffer, pH 7.3, and 3 μM aprotinin. A low-speed supernatant (1,660 g×15 min) was loaded onto a discontinuous sucrose density gradient With steps of 0.83 M and 2.66 M sucrose containing MgCl2 and TES. The gradients were spun to equilibrium at 242,000 g for 40 min in a vertical rotor (Vti50, Beckman). The GCP fraction at the 0.32/0.83 M sucrose interface was collected and used for the experiments described below.
All assays were run in triplicate.

[4] = system: GCPs plated on laminin; experiment: GCP release (detachment) assay on laminin; set-up: species or system rat
Description: GCP Release Assay. Petri dishes (35 mm diameter) were coated with 10 μg mouse laminin in PBS by incubation at room temperature for 60 min with shaking. Dishes were subsequently rinsed three times with PBS to remove unbound laminin and then blocked with 5% non-fat dry milk (Carnation) in PBS for 30 min. After three PBS rinses to remove blocking agent, the dishes were ready for the addition of GCPs. […] After incubation for five min at 37° C. this buffered GCP preparation was added to the laminincoated petri dishes. Contact with the substratum was facilitated by centrifuging the dishes for 15 min at 5000 g (Beckman JS5.2 rotor) at room temperature, followed by incubation at 37° C. to allow adhesion site formation. After 10 min, unattached GCPs were removed by rinsing the dishes twice with 1× modified Krebs buffer. Plated GCPs were then challenged with repellent factor (TRAP or thrombin) for 20 min at 37° C. The supernatant containing released GCPs was collected and centrifuged for protein determination of the pellet. GCPs that remained attached after repellent treatment were removed with 5% sodium dodecyl sulfate (SDS) for protein assay. Protein was measured according to Lowry et al. (1951) as modified by Peterson (1983). Results of these experiments were expressed as the percentage of released versus total GCP protein in the assay.

[5] = system: cPLA2; experiment: cPLA2 activation in AT-2 cells; assay type: biochemical, rat
Description: FIG. 9. Thrombin activation of cPLA2 in AT-2 cells incubated with either ^14C-AA-PI, -PC or -PE as substrate, for 10 min at 37° C. Released AA and diacylglycerol were isolated and counted.

[6] = system: growth cones in cultures of rat cerebral cortex; experiment: Growth cone collapse assay in cortical neuron culture; assay type: cell-based; details: thrombin 100 nM
How it was run: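 Cortical explants from E18 Sprague-Dawley rats were grown 2–3 days on poly-D-lysine, serum-free after 24 h, then pre-incubated 30–60 min at 37 °C with inhibitor or vehicle before repellent factor challenge for 1–30 min. Collapse was graded in randomly selected growth cones in aldehyde-fixed cultures (fixed after 7 min) or imaged live.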

[7] = system: phospholipase C; details: thrombin stimulation as for PLA2
Description: MAT-Lu cells were plated at a density of 0.5×10^6 cells per flask (T-75) and grown as detailed above to approximately 25% confluency. On the day before the experiments, the serum level in the medium was dropped to 1%. Cells were fed with fresh 1% serum-medium 4 hrs prior to harvest. For harvesting, cells were rinsed with Ca^++,Mg^++-free HBSS, covered with 2 ml cold Ca^++-free modified Krebs buffer (220 mM sucrose, 50 mM NaCl, 5 mM KCl, 22 mM HEPES, 10 mM glucose. 1.2 mM NaH2PO4 and 1.2 mM MgCl2, pH 7.3), and placed on ice. Cells were scraped off, pelleted for 5 min at 200 rpm and re-suspended in a minimal volume of Krebs buffer. Aliquots were used to determine protein concentration (Biorad Assay) and phopholipase activity. […] Lipid extraction followed by thin-layer chromatography (Negre-Aminou et al., J Neurochem 67:2599-2608 (1996)) isolated the reaction product (identified by co-migration with AA standard), which was then scraped off the plates and analyzed in a scintillation spectrometer (Beckman). In some experiments, especially those involving ^14C-AA-phosphatidylinositol as substrate, the diacylglycerol-containing band (identified by co-migration of standard) also was scraped and counted in order to measure phospholipase C (PLC) activity.

thrombin: potent growth cone repellent; commercially available thrombin (Sigma); rat thrombin in Boyden assays
increase of PLA2 activity (AA release), PE substrate [1]: 40-50 fold
effect on cell migration across the membrane ([2]; 200 nM in lower well, 4 hrs, serum-free medium): almost completely suppresses cell migration across the membrane
Mat-Lu cells crossing filter in % of control +/− SEM ([2]; Control column (no IGF-1)): 30.9 +/− 5.7 % of control
Mat-Lu cells crossing filter in % of control +/− SEM ([2]; IGF-1 (0.75 nM)): 38 +/− 9.2 % of control
decrease in control and IGF-1-induced migration across the membrane ([2]; at 200 nM): 70-80%
concentration at which PLA2 activation saturates ([3]; AA release from PI): about 250 nM
net activity (pmol/min/mg protein), GCPs ([3]; substrate PE): 210.2 ± 4.8 pmol/min/mg protein
net activity (pmol/min/mg protein), GCPs ([3]; substrate PI): 262 ± 47 pmol/min/mg protein
net activity (pmol/min/mg protein), no DTT ([3]; Table 3b, GCPs, substrate PI, thrombin 100 nM): 221 ± 39.9 pmol/min/mg protein
net activity (pmol/min/mg protein), 50 nM DTT ([3]; Table 3b, GCPs, substrate PI, thrombin 100 nM or control): 223 ± 53.4 pmol/min/mg protein
net activity (pmol/min/mg protein) ([3]; Table 3c, GCPs, substrate PI, BDNF 100, IGF-1 0.75, insulin 1, thrombin 200 nM, control 159 ± 6.2): 355 ± 28.0 pmol/min/mg protein
stimulation of PC-hydrolyzing cPLA2 (14C-AA release from PC) ([3]; thrombin 100 nM, GCPs): about 7 fold
stimulation of cPLA2-PE (14C-AA release from PE) ([3]; thrombin 100 nM, GCPs): ~7 fold
stimulation of cPLA2-PI (14C-AA release from PI) ([3]; thrombin 100 nM, GCPs): about 5 fold
stimulation of PC-hydrolyzing cPLA2 (14C-AA release from PC) ([3]; thrombin 100 nM, GCPs, listed as Thrombin): ~7 fold
effect on GCP detachment from laminin ([4]; 20 min at 37° C., cytochalasin D 1 μM): detached from the substratum in a dose-dependent maaner
growth cones detached from laminin ([4]; same thrombin concentrations as cPLA2 assays, in presence of calcium, controls 17%): about 46%
stimulation of cPLA2, PC substrate [5]: over 100 fold
stimulation of cPLA2, PE substrate [5]: about 30 fold
stimulation of cPLA2, PI substrate [5]: over 100 fold
time until most growth cones are fully collapsed [6]: 10 to 20 min
growth cone collapse, agent alone ([6]; TRAP (100 mM), 12(S)-HETE 10^−7 M): most growth cones are fully collapsed
effect on DAG release from PI / phospholipase C (words) [7]: reduced DAG release rather than stimulating it
effect on DAG release from PI / phospholipase C (words) ([7]; listed as Thrombin): did not activate phospholipase C in MAT-Lu cells
